Literature values as cited in patent publication US7097855B1, “Transdermal thermal polymerization” (Massachusetts Institute of Technology, priority 2000, dated 2006).

Columns and labels:
[1] = at 20° C.
[2] = tested on: rat

## CC(C)(N=NC(C)(C)C1=NCCN1)C1=NCCN1.Cl.Cl [AZODIA HCl, 2,2′-azobis-(N,N′-dimethyleneisobutyramidine) dihydrochloride]
[1]
  water solubility: 35.2 g/100 g solvent
[2]; female
  LD50 (oral, rat), female: 2800 mg/kg
[2]; male
  LD50 (oral, rat), male: 3200 mg/kg
